Test results reported in patent publication US20220062240A1, “METHODS OF TREATING CANCER USING A CLK INHIBITOR” (BioSplice Therapeutics, Inc., priority 2018, published 2022).
Read-outs that look alike come from different tables or passages of the source.

Assays:
CLK2 = target: T1, CLK2 (Homo sapiens, UniProt P49760); assay: CLK2 kinase activity assay (Z-lyte, Ser/Thr 6 peptide); format: biochemical; settings: recombinant CLK2 kinase, ATP 60 μM; read-out: EC50
T1 construct: purchased Thermo Fisher (Life Technologies), Z'-LYTE Kinase Assay Kits
T1 sequence (P49760 whole entry): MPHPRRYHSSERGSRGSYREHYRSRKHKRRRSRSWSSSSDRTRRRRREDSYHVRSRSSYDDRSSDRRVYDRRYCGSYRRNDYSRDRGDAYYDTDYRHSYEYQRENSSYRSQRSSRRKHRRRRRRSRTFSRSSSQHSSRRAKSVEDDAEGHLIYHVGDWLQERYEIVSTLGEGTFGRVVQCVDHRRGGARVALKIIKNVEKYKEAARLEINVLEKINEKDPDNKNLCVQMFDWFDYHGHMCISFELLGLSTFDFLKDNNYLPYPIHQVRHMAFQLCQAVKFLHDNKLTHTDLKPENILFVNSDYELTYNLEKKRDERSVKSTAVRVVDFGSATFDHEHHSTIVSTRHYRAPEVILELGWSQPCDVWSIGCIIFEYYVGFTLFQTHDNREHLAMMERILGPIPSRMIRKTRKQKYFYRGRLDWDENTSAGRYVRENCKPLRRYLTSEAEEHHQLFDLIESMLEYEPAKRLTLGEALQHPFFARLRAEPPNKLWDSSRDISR
Method: All reactions were performed in duplicate.

BT-549 = assay: CellTiter-Glo Viability Assay, breast cancer; format: cell-based; settings: Homo sapiens, 96 h; BT-549, breast cancer, four days; read-out: EC50
CAMA1 = assay: CellTiter-Glo Viability Assay, breast cancer; format: cell-based; settings: Homo sapiens, CAMA-1, 96 h; CAMA1, breast cancer, four days; read-out: EC50
DU4475 = assay: CellTiter-Glo Viability Assay, breast cancer; format: cell-based; settings: Homo sapiens, DU-4475, 96 h; DU4475, breast cancer, four days; read-out: EC50
HCC1599 = assay: CellTiter-Glo Viability Assay, breast cancer; format: cell-based; settings: Homo sapiens, 96 h; HCC1599, breast cancer, four days; read-out: EC50
MCF7 = assay: CellTiter-Glo Viability Assay, breast cancer; format: cell-based; settings: Homo sapiens, 96 h; MCF7, breast cancer, four days; read-out: EC50
MDA-MB-231-Luc = assay: CellTiter-Glo Viability Assay, breast cancer; format: cell-based; settings: Homo sapiens, 96 h; MDA-MB-231-Luc, breast cancer, four days; read-out: EC50
T47D = assay: CellTiter-Glo Viability Assay, breast cancer; format: cell-based; settings: Homo sapiens, 96 h, breast cancer, four days, read-out: EC50
ZR-75-1 = assay: CellTiter-Glo Viability Assay, breast cancer; format: cell-based; settings: Homo sapiens, 96 h; ZR-75-1, breast cancer, four days; read-out: EC50
all 50 cell lines = assay: CellTiter-Glo Viability Assay, average across all cell lines; format: cell-based; settings: Homo sapiens; across all 50 cell lines; read-out: average EC50 for inhibition of cancer cell proliferation
Summary of the method: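 Human cancer cell lines from breast, colorectal, haematopoietic/lymphoid, liver, lung, ovarian, pancreatic and prostate tumours were seeded at 300-3,000 cells/well and exposed to compound in duplicate for four days at 37° C, 5% CO2. Viable cells were measured by ATP luminescence; EC50 values came from dose-response curves.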

[1] = test system: colorectal cancer (6 cell lines); assay: CellTiter-Glo Viability Assay, colorectal cancer; format: cell-based; settings: Homo sapiens, inhibition of cancer cell proliferation
[2] = test system: haematopoietic & lymphoid tumors (13 cell lines); assay: CellTiter-Glo Viability Assay, haematopoietic & lymphoid tumors; format: cell-based; settings: Homo sapiens, inhibition of cancer cell proliferation
[3] = test system: liver cancer (3 cell lines); assay: CellTiter-Glo Viability Assay, liver cancer; format: cell-based; settings: Homo sapiens, inhibition of cancer cell proliferation
[4] = test system: lung cancer (4 cell lines); assay: CellTiter-Glo Viability Assay, lung cancer; format: cell-based; settings: Homo sapiens, inhibition of cancer cell proliferation
[5] = test system: ovarian cancer (4 cell lines); assay: CellTiter-Glo Viability Assay, ovarian cancer; format: cell-based; settings: Homo sapiens, inhibition of cancer cell proliferation
[6] = test system: pancreatic cancer (8 cell lines); assay: CellTiter-Glo Viability Assay, pancreatic cancer; format: cell-based; settings: Homo sapiens, inhibition of cancer cell proliferation
[7] = test system: prostate cancer (5 cell lines); assay: CellTiter-Glo Viability Assay, prostate cancer; format: cell-based; settings: Homo sapiens
CLK3 = CLK3 (Homo sapiens, UniProt P49761); assay: CLK3 kinase activity assay (Z-lyte, Ser/Thr 18 peptide)
CLK3, sequence (P49761 whole entry): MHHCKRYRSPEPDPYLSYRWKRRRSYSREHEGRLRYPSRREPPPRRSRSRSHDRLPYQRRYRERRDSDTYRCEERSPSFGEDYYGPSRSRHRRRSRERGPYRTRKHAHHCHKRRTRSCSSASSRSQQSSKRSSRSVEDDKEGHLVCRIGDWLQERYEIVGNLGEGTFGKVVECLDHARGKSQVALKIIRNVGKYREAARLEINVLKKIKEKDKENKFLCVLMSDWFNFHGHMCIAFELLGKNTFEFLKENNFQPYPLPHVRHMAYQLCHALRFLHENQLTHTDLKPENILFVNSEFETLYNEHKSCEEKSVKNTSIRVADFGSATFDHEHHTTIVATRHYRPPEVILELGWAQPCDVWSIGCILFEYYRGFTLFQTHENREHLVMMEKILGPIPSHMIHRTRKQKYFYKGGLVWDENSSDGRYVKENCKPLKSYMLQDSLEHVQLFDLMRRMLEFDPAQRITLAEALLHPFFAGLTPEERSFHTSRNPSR

O=C1CCc2cccc(c2)-c2cncc3[nH]c(nc23)-c2n[nH]c3ccc(cc23)-c2cncc(c2)N1 [Compound 55]
EC50 (CLK2): 0.0019 µM
EC50 (BT-549): 0.812 µM
EC50 (CAMA1): > 3.5 µM
EC50 (DU4475): 2.8 µM
EC50 (HCC1599): 0.86 µM
EC50 (MCF7): > 3.5 µM
EC50 (MDA-MB-231-Luc): > 3.5 µM
EC50 (T47D): > 3.5 µM
EC50 (ZR-75-1): > 3.5 µM
EC50 (all 50 cell lines): 6.89 µM
EC50 ([1]; HCT-116, HCT116 cell line, read-out: Colorectal cancer, EC50 (μM) HCT116): > 3.5 µM
EC50 ([1]; HT-29, HT29 cell line, read-out: Colorectal cancer, EC50 (μM) HT29): > 3.5 µM
EC50 ([1]; SW-620, SW620 cell line, read-out: Colorectal cancer, EC50 (μM) SW620): 1.97 µM
EC50 ([1]; DLD-1 cell line, read-out: Colorectal cancer, EC50 (μM) DLD-1): > 3.5 µM
EC50 ([1]; SW48 cell line, read-out: Colorectal cancer, EC50 (μM) SW48): > 3.5 µM
EC50 ([1]; SW480 cell line, read-out: Colorectal cancer, EC50 (μM) SW480): > 3.5 µM
EC50 ([2]; DND41, DND-41 cell line, read-out: Haematopoietic & Lymphoid tumors, EC50 (μM) DND-41): 0.776 µM
EC50 ([2]; MV4-11, MV-4-11 cell line, read-out: Haematopoietic & Lymphoid tumors, EC50 (μM) MV-4-11): 0.094 µM
EC50 ([2]; Rec1, REC-1 cell line, read-out: Haematopoietic & Lymphoid tumors, EC50 (μM) REC-1): > 3.5 µM
EC50 ([2]; SU-DHL-4, SUDHL4 cell line, read-out: Haematopoietic & Lymphoid tumors, EC50 (μM) SUDHL4): 0.983 µM
EC50 ([2]; HL-60 cell line, read-out: Haematopoietic & Lymphoid tumors, EC50 (μM) HL-60): > 3.5 µM
EC50 ([2]; JM1 cell line, read-out: Haematopoietic & Lymphoid tumors, EC50 (μM) JM1): 0.952 µM
EC50 ([2]; JURKAT, Clone E6-1 cell line, read-out: Haematopoietic & Lymphoid tumors, EC50 (μM) JURKAT, Clone E6-1): > 3.5 µM
EC50 ([2]; JeKo-1 cell line, read-out: Haematopoietic & Lymphoid tumors, EC50 (μM) JeKo-1): 0.357 µM
EC50 ([2]; KASUMI-1 cell line, read-out: Haematopoietic & Lymphoid tumors, EC50 (μM) KASUMI-1): 0.711 µM
EC50 ([2]; Loucy cell line, read-out: Haematopoietic & Lymphoid tumors, EC50 (μM) Loucy): 1.36 µM
EC50 ([2]; MOLT-4 cell line, read-out: Haematopoietic & Lymphoid tumors, EC50 (μM) MOLT-4): > 3.5 µM
EC50 ([2]; TF-1 cell line, read-out: Haematopoietic & Lymphoid tumors, EC50 (μM) TF-1): > 3.5 µM
EC50 ([2]; TOLEDO cell line, read-out: Haematopoietic & Lymphoid tumors, EC50 (μM) TOLEDO): 0.869 µM
EC50 ([3]; SNU-398, SNU398 cell line, read-out: Liver cancer, EC50 SNU398): 0.605 µM
EC50 ([3]; HEPG2 cell line, read-out: Liver cancer, EC50 HEPG2): > 3.5 µM
EC50 ([3]; PLC/PRF/5 cell line, read-out: Liver cancer, EC50 PLC/PRF/5): > 3.5 µM
EC50 ([4]; A-427, A427 cell line, read-out: Lung cancer, EC50 (μM) A427): 3.1 µM
EC50 ([4]; HCC78, HCC-78 cell line, read-out: Lung cancer, EC50 (μM) HCC-78): > 3.5 µM
EC50 ([4]; NCI-H460 cell line, read-out: Lung cancer, EC50 (μM) NCI-H460): > 3.5 µM
EC50 ([4]; NCI-H522 cell line, read-out: Lung cancer, EC50 (μM) NCI-H522): 2.47 µM
EC50 ([5]; PA-1, PA1 cell line, read-out: Ovarian cancer, EC50 (μM) PA1): > 3.5 µM
EC50 ([5]; TOV112D, TOV-112D cell line, read-out: Ovarian cancer, EC50 (μM) TOV-112D): > 3.5 µM
EC50 ([5]; OV-90 cell line, read-out: Ovarian cancer, EC50 (μM) OV-90): > 3.5 µM
EC50 ([5]; OVCAR-3 cell line, read-out: Ovarian cancer, EC50 (μM) OVCAR-3): 0.766 µM
EC50 ([6]; BXPC-3, BxPC3 cell line, read-out: Pancreatic cancer, EC50 BxPC3): > 3.5 µM
EC50 ([6]; CAPAN-1, Capan1 cell line, read-out: Pancreatic cancer, EC50 Capan1): > 3.5 µM
EC50 ([6]; Capan-2, Capan2 cell line, read-out: Pancreatic cancer, EC50 Capan2): > 3.5 µM
EC50 ([6]; MIA PaCa-2 cell line, read-out: Pancreatic cancer, EC50 MIA PaCa-2): 1.69 µM
EC50 ([6]; PANC 05.04 cell line, read-out: Pancreatic cancer, EC50 PANC 05.04): > 3.5 µM
EC50 ([6]; PANC-1 cell line, read-out: Pancreatic cancer, EC50 PANC-1): > 3.5 µM
EC50 ([6]; UPAFII cell line, read-out: Pancreatic cancer, EC50 UPAFII): > 3.5 µM
EC50 ([7]; DU-145, read-out: Prostate cancer EC50 Du-145): > 3.5 µM
EC50 ([7]; PC-3, PC3 cell line, inhibition of cancer cell proliferation, read-out: Prostate cancer EC50 PC3): 3.36 µM
EC50 ([7]; 22Rv1 cell line, inhibition of cancer cell proliferation, read-out: Prostate cancer EC50 22Rv1): > 3.5 µM
EC50 ([7]; LNCap clone FGC cell line, inhibition of cancer cell proliferation, read-out: Prostate cancer EC50 LNCap clone FGC): > 3.5 µM
EC50 ([7]; VCaP (Sigma) cell line, inhibition of cancer cell proliferation, read-out: Prostate cancer EC50 VCaP (Sigma)): > 3.5 µM
EC50 (CLK3): 0.0281 µM
